Square brackets hold non-standard residues; d marks the D form. Peptide text beside a SMILES is read from it. * marks the point of attachment. FITC = O=C1OC2(c3ccc(O)cc3Oc3cc(O)ccc32)c2ccc(NC(=S)*)cc21; Tyr(3-I) = N[C@@H](Cc1ccc(O)c(I)c1)C(=O)O
Key:
[1] = test system: liver-implanted NS3/4A-HCC36 or HCC36 tumors; test: Micro-PET imaging in orthotopic liver implantation tumor model (ROI analysis); type: in vivo; details: SCID mice n = 3, i.v. 3,700 kBq, micro-PET 4 h
From the text: The orthotopic liver implantation model was generated as previously described ([Kim et al., 2009]). The NS3/4A-HCC36 tumors or HCC36 tumors from the ectopic tumors were harvested and transplanted into the left liver lobe of SCID mice (n = 3). After 2 weeks, the mice were feed the Lugol’s solution, and then, the 3,700 kBq of TAT-ΔNS3/4A-^124I-FITC was intravenously injected.
The mice were positioned in a micro-PET scanner (R4; Concorde Microsystems, Knoxville, Tenn) with their long axis parallel to the transaxial plane of the scanner. The scanner has a computer-controlled bed with a 10.8-cm transaxial and 8-cm axial field of view. It has no septa and operates exclusively in a three-dimensional list mode. All raw data were first sorted into three-dimensional sinograms, followed by Fourier rebinning and ordered-subsets expectation maximization image reconstruction. Fully three-dimensional list-mode data were collected by using an energy window of 350–750 keV and a time window of 6 nsec. […] The region of interest was analyzed with ASIPro VM version 5.0 (Concorde Microsystems, Knoxville, TN, USA) analysis software.
FIGURE 7 Micro-PET Imaging of NS3/4A activity in orthotopic liver implantation model. […] (B) The accumulation of radioactivity in NS3/4A-HCC36 tumors and HCC36 tumors was measured using a gamma-counter at 2 (white column), 4 (black column), and 6 (gray column) h after probe injection. […]

[2] = Blood kinetics (half-life) of TAT-ΔNS3/4A-124I-FITC in mice; parameters: species or system BALB/c nude mice; details: mouse, in vivo, iv, 3700 kBq; BALB/c mice, i.v., 4 h after injection, gamma-counter; read-out: radioactivity in the blood
From the text: BALB/c nude mice (n = 3) were intravenously injected with 3,700 kBq TAT-ΔNS3/4A-^124I-FITC, and blood samples were periodically removed from the tail vein of the mice. The blood was weighed on an analytical balance and assayed for radioactivity in a multichannel gamma-counter. The initial and terminal half-life of the probe was estimated by fitting the data to a two-phase exponential decay model with Prism 4 software (GraphPad Software, San Diego, CA, USA).
(§1) FIGURE 4 Specificity and half-life of TAT-ΔNS3/4A-^124I-FITC. (A) NS3/4A-HCC36 and HCC36 cells were incubated with 37 kBq of TAT-ΔNS3/4A-^124I-FITC in the presence or absence of 2 μM Telaprevir at 37°C for 1 h. The cells were washed with DMEM containing 10% serum three times per hour. The cells were collected by treatment with trypsin at the indicated times. The radioactivity of the cells was then measured with a gamma-counter. The CPM was normalized by protein concentration. […] Error bar: standard error of triplicate determinations.

[3] = test system: liver-implanted NS3/4A-HCC36 or HCC36 tumors; test: Radioactivity of liver-implanted tumors, gamma-counter; type: in vivo, SCID mice; details: orthotopic liver model, i.v. 3,700 kBq, 6 h
Method: (§2) In xenograft model, BALB/c nude mice bearing established NS3/4A-HCC36 and HCC36 tumors (n = 3) were intravenously injected with 3,700 kBq (in 100 μL) TAT-ΔNS3/4A-^124I-FITC. In orthotopic model, SCID mice (n = 3) with NS3/4A-HCC36 or HCC36 tumors implanted in the liver were intravenously also injected with 3,700 kBq (in 100 μL) TAT-ΔNS3/4A-^124I-FITC. Animals were killed after anesthesia with pentobarbital (65 mg/kg) at 2, 4, and 6 h. Radioactivity in isolated tumors and tissues was measured with a multichannel gamma-counter. The biodistribution of the probe was expressed as percentage injected dose per gram of tissue (%ID/g).
FIGURE 7 Micro-PET Imaging of NS3/4A activity in orthotopic liver implantation model. The NS3/4A-HCC36 tumors or HCC36 tumors from the ectopic tumors were harvested and transplanted into the left liver lobe of SCID mice (n = 3). After 2 weeks, the 3,700 kBq of TAT-ΔNS3/4A-^124I-FITC was intravenously injected. (A) PET imaging was performed at 4 h after injection of the probe. (B) The accumulation of radioactivity in NS3/4A-HCC36 tumors and HCC36 tumors was measured using a gamma-counter at 2 (white column), 4 (black column), and 6 (gray column) h after probe injection. Data represent mean ± SEM. Student’s t-test analysis of data. Statistical analysis was compared NS3/4A-HCC36 with HCC36. P < 0.05 was considered statistically significant.

HCC36 cells [4] = test: Cellular retention of radioactivity of TAT-ΔNS3/4A-124I-FITC, gamma-counter; type: cell-based, Human; details: control HCC36 cells, 37 kBq probe 37°C 1 h, cultured 0, 4, 6, 8 h with washing, CPM normalized by protein
Method: (§3) HCC36 or NS3/4A-HCC36 (1 × 10^5) cells were seeded with DMEM containing 10% serum in a 24-well plate at 37°C in a CO2 incubator overnight. The cells were incubated with 37 kBq of TAT-ΔNS3/4A-^124I-FITC in the presence or absence of 2 μM telaprevir (Vertex, Cambridge MA) at 37°C for 1 h. After probe staining, the cells were washed using DMEM containing 10% serum per 20 min until the end of the experiment. At different time points, the cells were collected by treatment with trypsin. The radioactivity of the cells was then measured using a gamma-counter. The CPM was normalized by protein concentration.
as §1

NS3/4A-HCC36 cells [5] = test: as above; type: cell-based, Human
Method: as §3, §1

[6] = test system: NS3/4A-HCC36 and HCC36 tumors; test: Biodistribution in xenograft mice, gamma-counter; type: in vivo, BALB/c nude mice
Method: as §2
FIGURE 6 Biodistribution of TAT-ΔNS3/4A-^124I-FITC in xenograft mice. Mice bearing established NS3/4A-HCC36 and HCC36 tumors were injected with 3,700 kBq of TAT-ΔNS3/4A-^124I-FITC. Selected organs and tumors were removed from the mice after 2 (white column), 4 (black column), and 6 (gray column) h. The radioactivity of individual organs was measured using a gamma-counter and normalized for sample weights. The biodistribution of TAT-ΔNS3/4A-^124I-FITC in selected organs was expressed as percentage injected dose/g tissue. Data represent mean ± SEM.

[7] = Long-term biodistribution in xenograft mice; type: in vivo; details: i.v. 3,700 kBq, gamma-counter
Method: Supplementary file Image_4.TIF: Supplementary Figure 4 Long-term biodistribution of TAT-ΔNS3/4A-^124I-FITC in xenograft mice. Mice were injected with 3,700 kBq of TAT-ΔNS3/4A-^124I-FITC. Selected organs and tumors were removed from the mice after 4, 12, and 24 h. The radioactivity of individual organs was measured using a gamma-counter and normalized for sample weights. The biodistribution of TAT-ΔNS3/4A-^124I-FITC in selected organs was expressed as percentage injected dose/g tissue. Data represent mean ± SEM. Click here for additional data file.

[8] = test system: NS3/4A-HCC36 and HCC36 tumors; test: Micro-PET imaging of NS3/4A activity in xenograft mice (ROI analysis); type: in vivo, BALB/c nude mice; details: 6 h, n = 3
Method: BALB/c nude mice (n = 3) bearing established HCC36 and NS3/4A-HCC36 (100–200 mm^3) in their right and left hind leg, respectively, were anesthetized by halothane vapor with a vaporizer system. The mice were feed the Lugol’s solution and then intravenously injected with 3,700 kBq (in 100 μL) TAT-ΔNS3/4A-^124I-FITC. PET imaging was sequentially performed at 2, 4, and 6 h. To test the specificity of TAT-ΔNS3/4A-^124I-FITC, telaprevir (20 mg/kg/day for 3 days) or control vehicle was intraperitoneally injected into mice (n = 3) 3 days prior to TAT-ΔNS3/4A-^124I-FITC.
The mice were positioned in a micro-PET scanner (R4; Concorde Microsystems, Knoxville, Tenn) with their long axis parallel to the transaxial plane of the scanner. The scanner has a computer-controlled bed with a 10.8-cm transaxial and 8-cm axial field of view. It has no septa and operates exclusively in a three-dimensional list mode. All raw data were first sorted into three-dimensional sinograms, followed by Fourier rebinning and ordered-subsets expectation maximization image reconstruction. Fully three-dimensional list-mode data were collected by using an energy window of 350–750 keV and a time window of 6 nsec. Image pixel size was 0.85 mm transaxially, with a 1.21-mm section thickness. The region of interest was analyzed with ASIPro VM version 5.0 (Concorde Microsystems, Knoxville, TN, USA) analysis software. […]

HCC36 cells [9] = test: Specific retention of probe via flow cytometry; type: cell-based, Human; details: control HCC36 cells, 10 μM probe 1 h, washed three times per hour, 8 h
Method: (§4) We also used the WT probe (GRKKRRQRRR-[…]-LKKKYK-FITC) and the scrambled sequence probe (GRKKRRQRRR-[…]-LKKKYK) that could not be activated by protease as a control group to test the specific retention of probe via flow cytometry. HCC36 cells, NS3/4A-HCC36 cells, or JFH-1-infected HCC36 cells were incubated with 10 μM TAT-ΔNS3/4A-FITC or 10 μM TAT-scrambled NS3/4A-FITC in the absence or presence of 2 μM telaprevir (NS3/4A protease inhibitor) at 37 °C for 1 h. The cells were washed with DMEM containing 10% serum three times per hour. After culturing for 1 or 8 h, the fluorescence of viable cells was observed via flow cytometry.
(§5) Supplementary file Image_5.TIF: Supplementary Figure 5 To evaluate the specific retention of probe via flow cytometry, we used the WT probe (GRKKRRQRRR-[…]-LKKKYK-FITC) and the scrambled sequence probe (GRKKRRQRRR-[…]-LKKKYK) that could not be activated by protease as a control group to test the specific retention of probe via flow cytometry. HCC36 cells, NS3/4A-HCC36 cells, or JFH-1-infected HCC36 cells were incubated with 10 μM TAT-ΔNS3/4A-FITC or 10 μM TAT-scrambled NS3/4A-FITC in the absence or presence of 2 μM telaprevir (NS3/4A protease inhibitor) at 37°C for 1 h. The cells were washed with DMEM containing 10% serum three times per hour. After culturing for 1 or 8 h, the fluorescence of viable cells was observed via flow cytometry. Click here for additional data file.

[10] = test system: JFH-1-infected HCC36 cells; test: Specific retention of probe via flow cytometry; type: cell-based, Human; details: 10 μM probe 1 h, washed three times per hour, 8 h
Method: as §4, §5

NS3/4A-HCC36 cells [11] = test: Specific retention of probe via flow cytometry; type: cell-based, Human; details: 10 μM probe 1 h, washed three times per hour, 8 h
Method: as §4, §5

Molecule	ROI, implanted NS3/4A-HCC36 tumors vs HCC36 tumors [1]	tissue uptake at 4 h [2]	uptake of radioactivity, implanted NS3/4A-HCC36 tumors vs implanted HCC36 tumors [3]	radioactivity retained in the cells (HCC36 cells [4])	radioactivity retained in the cells (NS3/4A-HCC36 cells [5]; 37 kBq probe 37°C 1 h, cultured 0, 4, 6, 8 h with washing, CPM normalized by protein)	radioactivity retained in the cells after inhibitor treatment (NS3/4A-HCC36 cells [5]; 37 kBq probe + 2 μM telaprevir)	radioactivity in normal organs (stomach, kidneys) ([6]; i.v. 3,700 kBq, 2, 4, 6 h)	accumulation of radioactivity, NS3/4A-HCC36 tumors vs HCC36 tumors ([6]; i.v. 3,700 kBq, 6 h, %ID/g, n = 3)	radioactivity in tissues at 24 h ([7]; 24 h)	long-term accumulation of probe in kidney (and stomach) ([7]; organs at 4, 12, 24 h)	ROI radioactivity, NS3/4A-HCC36 tumors vs HCC36 tumors ([8]; i.v. 3,700 kBq)	ROI radioactivity, NS3/4A-HCC36 tumors vs HCC36 tumors, after inhibitor treatment ([8]; telaprevir 20 mg/kg/day i.p. for 3 days before probe)	fluorescence retention after culturing for 8 h (HCC36 cells [9])	fluorescence retention after culturing for 8 h [10]	fluorescence retention after culturing for 8 h (NS3/4A-HCC36 cells [11])
CSCC[C@H](NC(=O)[C@H](CCC(=O)O)NC(=O)[C@H](CC(=O)O)NC(=O)[C@H](CCC(=O)O)NC(=O)[C@H](CC(=O)O)NC(=O)[C@H](CCC(=O)O)NC(=O)[C@H](CC(=O)O)NC(=O)[C@H](CCC(=O)O)NC(=O)[C@H](CC(=O)O)NC(=O)[C@H](CCCNC(=N)N)NC(=O)[C@H](CCCNC(=N)N)NC(=O)[C@H](CCCNC(=N)N)NC(=O)[C@H](CCC(N)=O)NC(=O)[C@H](CCCNC(=N)N)NC(=O)[C@H](CCCNC(=N)N)NC(=O)[C@H](CCCCN)NC(=O)[C@H](CCCCN)NC(=O)[C@H](CCCNC(=N)N)NC(=O)CN)C(=O)N[C@@H](CCC(=O)O)C(=O)N[C@@H](CCC(=O)O)C(=O)N[C@@H](CS)C(=O)N[C@@H](C)C(=O)N[C@@H](CO)C(=O)N[C@@H](Cc1c[nH]cn1)C(=O)N[C@@H](CC(C)C)C(=O)N[C@@H](CCCCN)C(=O)N[C@@H](CCCCN)C(=O)N[C@@H](CCCCN)C(=O)N[C@@H](Cc1ccc(O)c(I)c1)C(=O)N[C@@H](CCCCNC(=S)Nc1ccc2c(c1)C(=O)OC21c2ccc(O)cc2Oc2cc(O)ccc21)C(=O)O [TAT-ΔNS3/4A-^124I-FITC] (H-GRKKRRQRRRDEDEDEDEMEECASHLKKK[Tyr(3-I)]K(FITC)-OH; N-terminus and C-terminus assumed)	4.75 fold	2.6 ± 0.1 %ID/g	3.1 fold	not in control HCC36 cells	A high level of radioactivity was detected	radioactivity did not accumulate	high levels of radioactivity were observed in the stomach and kidneys	2.7 fold	did not accumulate in the all of tissues at 24 h	accumulation of probe in kidney and in stomach would quickly reduce at 12 and 24 h	2.53 fold	1.31 fold	–	–	–
GRKKRRQRRR-ECEEEEESMDDDAH-LKKKYK [scrambled sequence probe]	–	–	–	–	–	–	–	–	–	–	–	–	cannot be accumulated in each cell	cannot be accumulated in each cell	cannot be accumulated in each cell
